Measured values taken from patent publication USRE40233E1, “Viral variants and methods for detecting same” (Melbourne Health, priority 1996, dated 2008).

Assays:
[1] = system: HBV DNA polymerase-reverse transcriptase; details: in vitro; cited from earlier work
duck HBV = details: in vitro; cited from earlier work
HBV [2] = assay: serum HBV DNA level during antiviral therapy, patient A (post-OLT); format: in vivo, Hepatitis B Virus
Excerpt: The patient was transplanted because of end-stage liver failure due to chronic HBV infection. The initial post transplant course was unremarkable but by 5 months there was evidence of recurrent infection and very high levels of viral replication and deteriorating liver function (12). The histological picture was consistent with fibrosing cholestatic hepatitis. Antiviral treatment was commenced approximately 6 months post-OLT. Initially, the patient received intravenous (iv) ganciclovir (GCV; 10 mg/kg/day) in combination with iv foscarnet (PFF; 50-125 mg/kg/day; the dose depending on renal function) (12). This is the treatment of GCV+PFF described in FIG. 2 which lasted for 86 days. Maintenance iv GCV (3.3-6.7 mg/kg/day) three times per week was commenced on day 87 of antiviral treatment (GCV in FIG. 2). Oral famciclovir (250 mg, twice daily) was commenced on day 446 of therapy (FCV [I] in FIG. 2) which was increased to 500 mg twice daily (FCV [II] in […]) on day 500. The patient is currently on this treatment regime. The clinical and virological details of this patient preceding famciclovir therapy have been reported (12).
Serum samples were routinely collected and stored at −70° C. Informed consent was obtained from the patient to use these samples for research purposes. […] The 5 samples chosen for additional studies cover a period of almost four years.
Hepatitis B surface antigen (HbsAg), hepatitis B e antigen (HbeAg), anti-HBe, hepatitis B core antigen (HbcAg) specific IgG and IgM, hepatitis A specific IgM, hepatitis delta antigen and antibody, and anti-hepatitis C virus antibody were measured using commercially available immunoassays (Abbott Laboratories, North Chicago, Ill.). Only the HBV markers were positive. Hepatitis B viral DNA levels were measured and quantified using a capture hybridisation assay according to the manufacturer's directions (Digene Diagnostics Inc., Beltsville, Md.).
This reduction in viraemia was associated with clinical, biochemical and histological improvement (12). […] However, the level of HBV DNA gradually rose over time from 3,000 pg/ml on day 600 (154 days of famciclovir), to 8,800 pg/ml on day 816 (370 days famciclovir), peaking at 29,000 pg/ml on day 1302 (856 days of famciclovir), then stabilising at around 12,000 pg/ml on day 1329 (883 days of famciclovir). […] There was a 1.5 to 2 fold rise in ALT levels over the same time interval (FIG. 2) and no change in clinical status.

HBV [3] = assay: response to antiviral treatment, patient C; format: in vivo, Hepatitis B Virus
Excerpt: Patient B was undergoing long term famciclovir treatment (>850 days). The amino acid change selected during famciclovir treatment is shown as HBV (patient B) in FIG. 5. […] The HBV isolated during FCV treatment from patient C, is shown as HBV (patient C-FCV). All 3TC resistance mutations which developed during treatment with 3TC is shown as HBV (patient C-3TC). […] A mutation of Met 550 to Ile in the YMDD motif was detected from HBV isolated 32 days (333 days post treatment) after the HBV containing the Thr-Ser substitution was isolated.

HBV [4] = details: in man, patient with severe hepatitis B following OLT; cited from earlier work
duck HBV virus = details: oral, in vivo; cited from earlier work
HBV DNA polymerase [5] = assay: endogenous HBV DNA polymerase assay, PCV-TP sensitivity; format: biochemical, Hepatitis B Virus; details: 100 μmol/L PCV-TP, serum HBV of patient A
Protocol: (§1) Samples of serum (100 μl) were applied to a 20% w/v sucrose cushion in TNE (20 mmol/L Tris-HCl pH 7.4, 150 mmol/L NaCl2 1 mmol/L EDTA) and centrifuged at 200,000 g for 3 hr at 10° C. using an SW41 rotor in a Beckman Model L8 ultracentrifugc. The pellet was resuspended in 50 mmol/L TRIS-HCl pH 7.5 containing 1.5% v/v Triton-X100, 100 mmol/L Kcl and 0.01% v/v 2-mercaptoethanol and allowed to stand overnight at 4° C. Small aliquots of the suspension were assayed for endogenous HBV DNA polymerase activity essentially as described by Price et al (16). Each assay was performed in a total volume of 30 μl which contained 20 μl of the partly purified HBV and (final concentrations) 30 mmol/L Tris-HCl pH 7.5, 30 mmol/L MgCl2, 10 μmol/L each dATP, dTTP and dGTP, and 0.01 μM [α-^32P]-dCTP (3,000 Ci/mmol) (Dupont NEN, Boston, Mass.). To test for penciclovir triphosphate (PCV-TP) sensitivity, paired assays were performed on each sample, with an excess (100 μmol/L penciclovir-triphosphate included in the reaction mixture in one assay of each pair. After 2 hr at 37° C., reactions were stopped by spotting 20 μl aliquots of each reaction mix onto 25 mm diameter glass fibre discs (Advantex, Tokyo, Japan) which had been pre-soaked in 10% w/v trichloroacetic acid (TCA). Discs were dried before washing in ice-cold 10% w/v TCA containing 10 mmol/L sodium pyrophosphate.
(§2) Three further 10 min. washes in cold 5% v/v TCA followed. The washed discs were finally rinsed in absolute ethanol, air dried, and counted for radioactivity. Inhibition of HBV DNA polymerase activity by PCV-TP was expressed as the percentage difference in activity in the assay mix containing PCV-TP compared to the matched control. Because of limited sample amounts, it was not possible to standardize enzyme activity or to perform replicate assays. Despite the inherent variability of the assay, a general time related decrease in sensitivity of the HBV DNA polymerase to PCV-TP was evident (see Table 1).

HBV DNA polymerase [6] = target: T1, HBV DNA polymerase (Hepatitis B virus genotype D subtype ayw, UniProt P03156, L515M/V508L); assay: as above; format: biochemical; details: 100 μmol/L PCV-TP, serum HBV of patient A
T1 construct: Small aliquots of the suspension were assayed for endogenous HBV DNA polymerase activity; from tissue; host or cells: patient serum; virions pelleted through a 20% sucrose cushion and treated with Triton X-100
Protocol: as §1, §2

T1 sequence (P03156 whole entry V508L/L515M): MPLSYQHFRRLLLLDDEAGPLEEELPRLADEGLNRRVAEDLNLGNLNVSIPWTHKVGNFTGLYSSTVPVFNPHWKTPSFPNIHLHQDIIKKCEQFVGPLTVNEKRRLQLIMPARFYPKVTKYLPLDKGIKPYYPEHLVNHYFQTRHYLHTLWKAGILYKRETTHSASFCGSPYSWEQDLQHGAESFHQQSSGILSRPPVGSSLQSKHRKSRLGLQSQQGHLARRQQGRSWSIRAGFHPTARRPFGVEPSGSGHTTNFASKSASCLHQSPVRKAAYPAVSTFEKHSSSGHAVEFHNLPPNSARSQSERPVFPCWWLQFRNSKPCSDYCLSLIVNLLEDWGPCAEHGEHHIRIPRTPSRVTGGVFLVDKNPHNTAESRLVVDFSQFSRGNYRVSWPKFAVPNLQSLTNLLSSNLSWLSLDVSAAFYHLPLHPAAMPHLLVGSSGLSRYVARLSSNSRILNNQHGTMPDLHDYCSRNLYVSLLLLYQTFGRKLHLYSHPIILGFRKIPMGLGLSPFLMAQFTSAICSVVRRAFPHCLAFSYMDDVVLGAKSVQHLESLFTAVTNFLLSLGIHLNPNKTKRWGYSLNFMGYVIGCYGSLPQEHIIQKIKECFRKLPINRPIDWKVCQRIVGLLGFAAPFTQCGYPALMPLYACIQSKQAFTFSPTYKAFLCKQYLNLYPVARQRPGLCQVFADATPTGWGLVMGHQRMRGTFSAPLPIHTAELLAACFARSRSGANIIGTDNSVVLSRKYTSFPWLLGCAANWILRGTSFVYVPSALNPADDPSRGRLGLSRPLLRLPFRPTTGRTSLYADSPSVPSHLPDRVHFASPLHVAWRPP

Molecule: Nc1nc2c(ncn2CCC(CO)CO)c(=O)[nH]1 [Peniciclovir, penciclovir]
- HBV DNA polymerase-reverse transcriptase activity [1]: inhibit
- activity against duck HBV DNA synthesis (duck HBV): potent inhibitory activity

Molecule: Nc1nc(O)c2ncn(COC(CO)CO)c2n1 [GCV, ganciclovir]
- levels of HBV DNA (HBV [2]; maintenance iv GCV from day 87, over 359 days): fluctuating levels of HBV DNA

Molecule: CC(=O)OCC(CCn1cnc2cnc(N)nc21)COC(C)=O [famciclovir]
- response to treatment (HBV [3]): did not respond
- HBV DNA replication (HBV [4]): reduce HBV DNA replication
- intra-hepatic replication of duck HBV virus (duck HBV virus): inhibit
- level of HBV DNA (HBV [2]; day 600 (154 days of famciclovir)): 3,000 pg/ml
- level of HBV DNA (HBV [2]; day 816 (370 days famciclovir)): 8,800 pg/ml
- level of HBV DNA (HBV [2]; day 1302 (856 days of famciclovir), peak): 29,000 pg/ml
- level of HBV DNA (HBV [2]; day 1329 (883 days of famciclovir)): around 12,000 pg/ml
- HBV DNA change (HBV [2]; dose increase to 500 mg twice daily on day 500 (FCV[II])): decrease in HBV DNA
- HBV DNA change (HBV [2]; switch to oral famciclovir 250 mg twice daily on day 446 (FCV[I])): rise in HBV DNA

Molecule: penciclovir triphosphate [PCV-TP]
- Inhibition of HBV DNA polymerase by PCV-TP (HBV DNA polymerase [5]; day 600 of antiviral treatment (154 days famciclovir)): 30%
- Inhibition of HBV DNA polymerase by PCV-TP (HBV DNA polymerase [5]; pretreatment sample): 40%
- Inhibition of HBV DNA polymerase by PCV-TP (HBV DNA polymerase [6]; day 816 of antiviral treatment (370 days famciclovir), Val519Leu/Leu526Met): 0%
- Inhibition of HBV DNA polymerase by PCV-TP (HBV DNA polymerase [6]; day 1329 of antiviral treatment (883 days famciclovir)): 0%
